Reference: patent US7405051B2, “Method of screening antiplatelet agents” (Astellas Pharma Inc., priority 2000, dated 2008)
pKd: −log10 of the molar value.

How the values were obtained:
[1] = tested on: membrane fraction of the host cell C6-15 not expressing the HORK3 protein; test: [3H]-2MeSADP binding to membrane fraction of host cell C6-15 not expressing HORK3 protein; design: species or system rat
Source text: (§1) The C6-15 cells expressing the HORK3 protein prepared in Example 5 were taken and washed, and then suspended in 20 mmol/L Tris-HCl (pH7.4) containing 5 mmol/L EDTA and a protease inhibitor cocktail set (Complete™; manufactured by Boeringer Mannheim). The whole was homogenized by using a POLYTRON, and ultracentrifuged. The pellet was suspended in 50 mmol/L Tris-HCl (pH7.4) containing 1 mmol/L EDTA, 100 mmol/L NaCl, 0.1% BSA, and Complete™ to obtain a membrane fraction.
After [^3H]-2MeSADP (manufactured by Moravek Biochemical) was added to 20 μg of the membrane fraction as a final concentration of 0.25 to 50 nmol/L, and was incubated in 250 μL of 50 mmol/L Tris-HCl (pH7.4) containing 1 mmol/L EDTA, 100 mmol/L NaCl, 0.1% BSA, and Complete™ at room temperature for 1 hour, the whole was collected on a glass filter by using a cell harvester. A microscintillator was added to the glass filter, and then a total amount of binding to the membrane fraction was measured by using a liquid scintillation counter. Further, an amount of non-specific binding to the membrane fraction was measured by adding 2MeSADP (a final concentration=50 μmol/L) in the above assay. […] In contrast, such a specific binding was not observed in the membrane fraction of the host cell C6-15 not expressing the HORK3 protein.

[2] = target: HORK3 protein (human ADP receptor P2TAC) (Homo sapiens, UniProt Q9H244); test: [3H]-2MeSADP binding assay on membrane fraction of C6-15 cell expressing HORK3 protein; details: Scatchard analysis
Source text: as §1
After [^3H]-2MeSADP (manufactured by Moravek Biochemical) was added to 20 μg of the membrane fraction as a final concentration of 0.25 to 50 nmol/L, and was incubated in 250 μL of 50 mmol/L Tris-HCl (pH7.4) containing 1 mmol/L EDTA, 100 mmol/L NaCl, 0.1% BSA, and Complete™ at room temperature for 1 hour, the whole was collected on a glass filter by using a cell harvester. A microscintillator was added to the glass filter, and then a total amount of binding to the membrane fraction was measured by using a liquid scintillation counter. Further, an amount of non-specific binding to the membrane fraction was measured by adding 2MeSADP (a final concentration=50 μmol/L) in the above assay.
A microscintillator was added to the glass filter, and then radioactivity was measured by using a liquid scintillation counter. Further, radioactivity was measured by not adding the compound and by adding 2MeSADP (a final concentration=10 μmol/L) in the above assay, as a total amount of binding and an amount of non-specific binding, respectively.

HORK3 protein (human ADP receptor P2TAC), sequence (Q9H244 whole entry): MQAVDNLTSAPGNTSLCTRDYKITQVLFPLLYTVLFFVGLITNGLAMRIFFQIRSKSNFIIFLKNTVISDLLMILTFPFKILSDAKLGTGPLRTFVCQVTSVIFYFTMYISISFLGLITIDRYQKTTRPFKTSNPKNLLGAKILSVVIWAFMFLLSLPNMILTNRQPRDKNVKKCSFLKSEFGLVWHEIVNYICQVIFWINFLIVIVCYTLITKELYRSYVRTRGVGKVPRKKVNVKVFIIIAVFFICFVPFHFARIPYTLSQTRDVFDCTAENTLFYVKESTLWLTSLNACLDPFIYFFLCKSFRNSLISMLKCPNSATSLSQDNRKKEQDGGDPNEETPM

CSc1nc(N)c2ncn([C@@H]3O[C@H](COP(=O)(O)OP(=O)(O)O)[C@@H](O)[C@H]3O)c2n1 [[^3H]-2MeSADP, [^3H] 2-methylthio-ADP]
specific binding to the membrane fraction [1]: not observed | pKd ([2]; 0.25 to 50 nmol/L, room temperature 1 hour, read-out: dissociation constant Kd of binding to the membrane fraction): 9.57 | maximum binding Bmax ([2]; membrane fraction of C6-15 cell expressing HORK3): 3.7 pmol/mg
